The test system of assay [1] is Enterococcus faecium. In words: Antibacterial activity against vancomycin-susceptible Enterococcus faecium SR-16972. It counts as functional. Particulars: SR16972.
Assay [2] has as its system Enterococcus faecalis. Briefly: Antibacterial activity against vancomycin B-resistant Enterococcus faecalis SR-23630. To be noted: SR23630. Type of assay: functional.
The nature of assay [3]: Binding affinity to 8-Amino-octanoyl-D-Ala-D-Ala peptide by surface plasmon resonance.
The subject of assay [4] is Staphylococcus aureus. Briefly: Antibacterial activity against vancomycin A-resistant Staphylococcus aureus VRS2. It counts as functional.
Assay [5] relates to Staphylococcus aureus. Briefly: Antibacterial activity against vancomycin-susceptible Staphylococcus aureus RN4220. Type of assay: functional.
For assay [6], the system named is Staphylococcus aureus. Briefly: Antibacterial activity against methicillin-resistant vancomycin-susceptible Staphylococcus aureus SR-3637. To be noted: SR3637. Type of assay: functional.
Assay [7] deals with Enterococcus faecalis. Briefly: Antibacterial activity against vancomycin A-resistant Enterococcus faecalis SR-7914. Type of assay: functional. To be noted: SR7914.
Assay [8] concerns Enterococcus faecium. Briefly: Antibacterial activity against vancomycin B-resistant Enterococcus faecium SR-23598. To be noted: SR23598. It counts as functional.
For assay [9], the system named is Enterococcus faecalis. Briefly: Antibacterial activity against vancomycin-susceptible Enterococcus faecalis SR1004. It counts as functional.
Assay [10] has as its system Enterococcus faecium. Briefly: Antibacterial activity against vancomycin A-resistant Enterococcus faecium SR-7940. It counts as functional. To be noted: SR7940.

Structures are written as SMILES. In brackets after ≈: the same amount, converted by molar mass.

With `CCCCCC/C=C/c1cc2ccc1Oc1cc3cc(c1O[C@@H]1O[C@H](CO)[C@@H](O)[C@H](O)[C@H]1O[C@H]1C[C@](C)(N)[C@H](O)[C@H](C)O1)Oc1ccc(cc1/C=C/CCCCCC)[C@@H](O)[C@@H](NC(=O)[C@@H](CC(C)C)NC)C(=O)N[C@@H](CC(N)=O)C(=O)N[C@H]3C(=O)N[C@H]1C(=O)N[C@H](C(=O)N[C@H](C(=O)O)c3cc(O)cc(O)c3-c3cc1ccc3O)[C@@H]2O`, the MIC is 32 µg/mL (≈ 20 µM) against Enterococcus faecium [1]; over 64 µg/mL in the assay on Enterococcus faecalis [2]; over 64 µg/mL against Staphylococcus aureus [4]; 32 µg/mL (≈ 20 µM) with Staphylococcus aureus [5]; 64 µg/mL (≈ 40 µM) with Staphylococcus aureus [6]; over 64 µg/mL with Enterococcus faecalis [7]. Besides, the MIC in the assay on Enterococcus faecium [8] is over 64 µg/mL; with Enterococcus faecalis [9], 32 µg/mL (≈ 20 µM); against Enterococcus faecium [10], over 64 µg/mL. Further, the dissociation constant (Kd) in [3] came out at 11.6 µM.
As for `CCCCCC/C=C/c1cc2ccc1Oc1cc3cc(c1O[C@@H]1O[C@H](CO)[C@@H](O)[C@H](O)[C@H]1O[C@H]1C[C@](C)(N)[C@H](O)[C@H](C)O1)Oc1ccc(cc1Cl)[C@@H](O)[C@@H](NC(=O)[C@@H](CC(C)C)NC)C(=O)N[C@@H](CC(N)=O)C(=O)N[C@H]3C(=O)N[C@H]1C(=O)N[C@H](C(=O)N[C@H](C(=O)O)c3cc(O)cc(O)c3-c3cc1ccc3O)[C@@H]2O`, the MIC with Enterococcus faecium [1] is 2 µg/mL (≈ 1.31 µM); in the assay on Enterococcus faecalis [2], over 64 µg/mL; against Staphylococcus aureus [4], over 64 µg/mL; in the assay on Staphylococcus aureus [5], 1 µg/mL (≈ 0.656 µM); against Staphylococcus aureus [6], 2 µg/mL (≈ 1.31 µM); in the assay on Enterococcus faecalis [7] it was over 64 µg/mL. The MIC in the assay with Enterococcus faecium [8] is over 64 µg/mL; with Enterococcus faecalis [9] it was 2 µg/mL (≈ 1.31 µM); in the assay on Enterococcus faecium [10] it was over 64 µg/mL. In assay [3], binding was put at a Kd of 3.77 µM.

Source of the values: ChEMBL document CHEMBL1155426, “Discovery of a novel series of semisynthetic vancomycin derivatives effective against vancomycin-resistant bacteria” (J Med Chem, 2010).
